The record followed here is ChEMBL document CHEMBL1201862, “PubChem BioAssay data set” (2004).

Test [1] deals with HEK293. Put plainly: HEK293T cell viability loss, resazurin readout – resazurin fluorescence, cytotoxicity control for NF-kB activator project, SAR follow-up (AID 493251). As to conditions: Homo sapiens. The format is functional, cell-based. A general note: Alamar Blue is a resazurin reagent that responds to reducing activity.
The subject of another test is Jurkat. In words: SAR Analysis of small molecule inhibitors of both B-cell and T-cell specific antigen receptor-induced NF-kB activation in a Jurkat cell line using a luminescence assay. [Related pubchem assays (depositor defined):AID435003, AID435022, AID465, AID489029]. The format is functional, cell-based. As to conditions: Homo sapiens.
Test [2] has as its system HEK293. Put plainly: SAR Analysis of small molecule inhibitors of both B-cell and T-cell specific antigen receptor-induced NF-kB activation in a HEK-293T cell line using a luminescence assay. [Related pubchem assays (depositor defined):AID435003, AID435022, AID465, AID489019, AID489029]. It is filed as functional, cell-based. To be noted: Homo sapiens.
The nature of test [3]: Trypanosoma cruzi growth suppression in host cells – NIH3T3 host cells, beta-gal luminescence, confirmation (AID 2044).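 Note: intracellular parasites grown in NIH/3T3 mouse fibroblasts as host cells; luminescent beta-galactosidase reporter signal from transgenic T. cruzi replicating inside host cells; inhibitors lower the luminescence signal.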 The format is functional, cell-based.
A short description of test [4]: NIH3T3 cell viability loss – ATP luminescence, mouse fibroblasts, counter-screen, dose response (AID 2010).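 Note: cells exposed to compound for about 90 hours before reading.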 It is filed as functional, cell-based.
The target of test [5] is T1, V-type proton ATPase subunit c' (Saccharomyces cerevisiae S288c, UniProt P32842).
T1 sequence (P32842 whole entry): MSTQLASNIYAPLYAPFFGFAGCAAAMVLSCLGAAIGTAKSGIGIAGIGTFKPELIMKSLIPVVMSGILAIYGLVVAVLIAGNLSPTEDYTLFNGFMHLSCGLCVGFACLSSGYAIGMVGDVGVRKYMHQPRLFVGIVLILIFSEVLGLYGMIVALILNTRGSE
In words: Dose Response of Small Molecules that Regulate V-ATPase Proton Transport in Yeast using pHLuorin, Cherry Pick 2. It is filed as functional. As to conditions: read-out: EC50_MICROM.

Test [6] addresses T1, V-type proton ATPase subunit c'. Put plainly: Dose Response with BCECF Assay for V-ATPase inhibitors that increase vacuolar pH, Powder Set 1. It is filed as functional. To be noted: read-out: EC50_MICROM.
The target is the same in test [7]. In words: Dose Response of Small Molecules that Regulate V-ATPase Proton Transport in Yeast using pHLuorin, Powder Set1. The format is functional. As to conditions: read-out: EC50_MICROM.
Another test concerns the target T2, Caspase-3 (Homo sapiens, UniProt P42574).
T2 sequence (P42574 whole entry): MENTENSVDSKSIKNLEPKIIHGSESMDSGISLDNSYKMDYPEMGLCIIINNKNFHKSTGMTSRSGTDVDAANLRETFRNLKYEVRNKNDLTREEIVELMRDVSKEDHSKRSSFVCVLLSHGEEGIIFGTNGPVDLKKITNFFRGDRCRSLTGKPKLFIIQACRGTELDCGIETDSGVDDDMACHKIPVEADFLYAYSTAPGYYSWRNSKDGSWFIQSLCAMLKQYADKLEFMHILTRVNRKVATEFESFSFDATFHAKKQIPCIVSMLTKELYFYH
In words: inhibition of recombinant caspase-3 activity – biochemical, luminescence, set 2, selectivity assay for SENP protease inhibitor project, SAR follow-up (AID 588599). The format is functional.

Test [8] concerns the target T3, Sentrin-specific protease 8 (Homo sapiens, UniProt Q96LD8).
T3 sequence (Q96LD8 whole entry): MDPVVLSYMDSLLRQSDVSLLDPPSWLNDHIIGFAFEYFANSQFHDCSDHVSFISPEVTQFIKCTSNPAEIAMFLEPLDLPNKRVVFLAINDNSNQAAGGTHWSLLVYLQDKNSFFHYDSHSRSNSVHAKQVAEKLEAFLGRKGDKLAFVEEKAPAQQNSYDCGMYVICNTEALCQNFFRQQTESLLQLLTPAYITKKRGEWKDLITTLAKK
In words: inhibition of sentrin protease 8 – biochemical, luminescence, set 2, SAR follow-up (AID 588601). The format is functional.

Test [9] has as its target T4, Sentrin-specific protease 7 (Homo sapiens, UniProt Q9BQF6).
T4 sequence (Q9BQF6 whole entry): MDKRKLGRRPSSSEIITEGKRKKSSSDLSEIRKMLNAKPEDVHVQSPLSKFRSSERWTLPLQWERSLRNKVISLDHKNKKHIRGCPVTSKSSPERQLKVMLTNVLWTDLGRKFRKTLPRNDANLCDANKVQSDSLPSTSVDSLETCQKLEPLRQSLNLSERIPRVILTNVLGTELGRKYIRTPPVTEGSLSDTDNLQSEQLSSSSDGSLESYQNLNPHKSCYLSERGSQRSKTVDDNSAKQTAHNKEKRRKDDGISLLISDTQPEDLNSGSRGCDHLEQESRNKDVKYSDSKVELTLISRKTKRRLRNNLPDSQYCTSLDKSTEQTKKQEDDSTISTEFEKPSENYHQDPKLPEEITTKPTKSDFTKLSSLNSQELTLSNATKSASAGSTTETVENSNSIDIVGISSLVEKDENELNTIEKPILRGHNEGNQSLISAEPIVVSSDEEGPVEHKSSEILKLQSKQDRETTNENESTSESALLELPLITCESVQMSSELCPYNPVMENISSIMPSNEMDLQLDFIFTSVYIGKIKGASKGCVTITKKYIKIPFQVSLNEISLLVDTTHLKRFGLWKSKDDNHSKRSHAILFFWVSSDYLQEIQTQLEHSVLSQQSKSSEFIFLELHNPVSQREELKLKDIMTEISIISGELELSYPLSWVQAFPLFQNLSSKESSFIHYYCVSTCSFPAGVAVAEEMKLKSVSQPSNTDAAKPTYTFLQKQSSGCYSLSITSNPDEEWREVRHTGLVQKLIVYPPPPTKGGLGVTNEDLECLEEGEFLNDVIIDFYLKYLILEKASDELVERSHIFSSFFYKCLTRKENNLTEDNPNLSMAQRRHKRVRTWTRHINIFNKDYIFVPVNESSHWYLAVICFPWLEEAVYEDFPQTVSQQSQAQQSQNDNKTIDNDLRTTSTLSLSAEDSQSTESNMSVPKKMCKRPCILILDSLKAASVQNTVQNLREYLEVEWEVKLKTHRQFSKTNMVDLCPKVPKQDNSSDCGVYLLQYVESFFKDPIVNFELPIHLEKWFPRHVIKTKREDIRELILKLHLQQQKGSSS
Put plainly: inhibition of human SENP7 cleavage activity – biochemical, luminescence, set 2, SAR follow-up (AID 588600). The format is functional.

Test [10] has as its target T5, Sentrin-specific protease 6 (Homo sapiens, UniProt Q9GZR1).
T5 sequence (Q9GZR1 whole entry): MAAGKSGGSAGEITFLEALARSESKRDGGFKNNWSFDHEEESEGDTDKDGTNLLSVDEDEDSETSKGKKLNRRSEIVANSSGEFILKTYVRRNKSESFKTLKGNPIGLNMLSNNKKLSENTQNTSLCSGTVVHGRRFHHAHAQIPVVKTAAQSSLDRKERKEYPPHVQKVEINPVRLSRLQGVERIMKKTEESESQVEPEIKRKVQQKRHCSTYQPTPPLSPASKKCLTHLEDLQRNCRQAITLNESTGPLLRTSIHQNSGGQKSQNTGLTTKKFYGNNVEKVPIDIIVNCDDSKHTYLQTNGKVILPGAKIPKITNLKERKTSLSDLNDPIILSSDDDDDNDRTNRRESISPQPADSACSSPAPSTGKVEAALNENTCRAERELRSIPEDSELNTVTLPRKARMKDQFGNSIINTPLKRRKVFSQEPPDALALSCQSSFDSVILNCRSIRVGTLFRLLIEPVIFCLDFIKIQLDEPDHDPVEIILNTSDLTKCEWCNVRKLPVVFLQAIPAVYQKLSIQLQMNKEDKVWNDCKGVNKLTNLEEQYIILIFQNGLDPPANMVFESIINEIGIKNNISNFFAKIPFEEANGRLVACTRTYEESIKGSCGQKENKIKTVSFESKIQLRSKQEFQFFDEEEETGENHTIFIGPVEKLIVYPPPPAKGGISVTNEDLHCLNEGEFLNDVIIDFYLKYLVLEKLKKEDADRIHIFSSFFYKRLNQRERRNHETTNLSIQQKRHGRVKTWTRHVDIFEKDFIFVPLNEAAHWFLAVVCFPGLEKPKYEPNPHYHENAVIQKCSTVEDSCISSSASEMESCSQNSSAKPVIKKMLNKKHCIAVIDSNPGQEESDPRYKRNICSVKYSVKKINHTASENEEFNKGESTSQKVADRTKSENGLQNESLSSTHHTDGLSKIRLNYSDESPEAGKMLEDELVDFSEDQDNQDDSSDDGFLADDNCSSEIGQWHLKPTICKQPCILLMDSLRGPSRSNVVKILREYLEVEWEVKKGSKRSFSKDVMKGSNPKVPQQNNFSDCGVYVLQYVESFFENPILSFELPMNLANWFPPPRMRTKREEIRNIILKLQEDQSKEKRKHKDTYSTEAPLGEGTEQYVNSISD
Put plainly: inhibition of human SENP6 catalytic domain – biochemical, luminescence, set 2, SAR follow-up (AID 588598). It is filed as functional.

The next test concerns the target Melanocortin receptor 4 (Homo sapiens, UniProt P32245). Put plainly: inhibitors of MC4R cAMP signaling – cell-based, TR-FRET, biased antagonists, dose response (AID 602298).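 Note: antagonist potency against agonist-stimulated cAMP production.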 The format is functional. (In general: In TR-FRET formats the signal depends on donor and acceptor labels being close together.)
The nature of test [11]: cAMP pathway inhibition in counterscreen cell line – TR-FRET cAMP detection, counter-screen for MC4R biased antagonist project, dose response (AID 602305).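 Note: U2OS cells stimulated with forskolin near its EC80 as the cAMP inducer; potency is for inhibition of forskolin-stimulated cAMP signaling.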 It is filed as functional, cell-based.
For test [12], the system named is Candida albicans. In words: resistant Candida growth with fluconazole co-treatment – CaCi-8 strain, Alamar Blue, dry powder, set 3, dose response (AID 488905). The format is functional, organism-based.
The test system of test [13] is Candida albicans. In words: Candida growth inhibition combined with fluconazole – CaCi-2 strain, Alamar Blue, dry powder, set 3, dose response (AID 488907). It is filed as functional, organism-based.
Test [14] addresses 26S proteasome non-ATPase regulatory subunit 14 (Homo sapiens, UniProt O00487). In words: inhibition of proteasome subunit RPN11 – biochemical, fluorescence polarization, uHTS hits, confirmation (AID 602368). It is filed as functional. Background: In fluorescence polarisation assays a small probe gives low polarisation when free and higher when bound to something large.
Test [15] has as its target 72 kDa type IV collagenase (Homo sapiens, UniProt P08253). Put plainly: Dose Response validation of uHTS RPN11 inhibitor hits using a MMP-2 Fluorescence assay. It is filed as functional.
For another test, the target named is Prothrombin (Bos taurus, UniProt P00735). Put plainly: thrombin protease inhibitors – biochemical, fluorescence polarization, uHTS hits, dose response (AID 602369). The format is functional.
The subject of test [16] is INS1. In words: beta-cell survival under cytokine stress – INS-1E, ATP luminescence, dry powder, dose response (AID 488844). It is filed as functional, cell-based. As to conditions: Rattus norvegicus.
Test [17] in a line: suppression of NO production in INS-1E cells – cell-based, Griess absorbance, dry powder, set 3, dose response (AID 488870). The format is functional. To be noted: Rattus norvegicus.
In test [18] the test system is INS1. Put plainly: INS-1E mitochondrial potential loss inhibitors – cell-based, JC-1 fluorescence, dry powder, set 2, dose response (AID 488867). It is filed as functional. To be noted: Rattus norvegicus.
In test [19] the test system is INS1. Put plainly: INS-1E mitochondrial potential rescue under cytokines – cell-based, JC-1 fluorescence ratio, dry powder, dose response (AID 488931). To be noted: Rattus norvegicus. It is filed as functional.

Activity calls are given as the source filed them. Unless noted, no cut-off for these calls is given here. Some results are limits rather than exact numbers.

A word on the IC50: it is the point on the concentration scale where inhibition reaches its midpoint. For orientation: AC50 means the midpoint of the concentration-response curve, whichever way the signal moves.

72 kDa type IV collagenase, sequence (P08253 whole entry): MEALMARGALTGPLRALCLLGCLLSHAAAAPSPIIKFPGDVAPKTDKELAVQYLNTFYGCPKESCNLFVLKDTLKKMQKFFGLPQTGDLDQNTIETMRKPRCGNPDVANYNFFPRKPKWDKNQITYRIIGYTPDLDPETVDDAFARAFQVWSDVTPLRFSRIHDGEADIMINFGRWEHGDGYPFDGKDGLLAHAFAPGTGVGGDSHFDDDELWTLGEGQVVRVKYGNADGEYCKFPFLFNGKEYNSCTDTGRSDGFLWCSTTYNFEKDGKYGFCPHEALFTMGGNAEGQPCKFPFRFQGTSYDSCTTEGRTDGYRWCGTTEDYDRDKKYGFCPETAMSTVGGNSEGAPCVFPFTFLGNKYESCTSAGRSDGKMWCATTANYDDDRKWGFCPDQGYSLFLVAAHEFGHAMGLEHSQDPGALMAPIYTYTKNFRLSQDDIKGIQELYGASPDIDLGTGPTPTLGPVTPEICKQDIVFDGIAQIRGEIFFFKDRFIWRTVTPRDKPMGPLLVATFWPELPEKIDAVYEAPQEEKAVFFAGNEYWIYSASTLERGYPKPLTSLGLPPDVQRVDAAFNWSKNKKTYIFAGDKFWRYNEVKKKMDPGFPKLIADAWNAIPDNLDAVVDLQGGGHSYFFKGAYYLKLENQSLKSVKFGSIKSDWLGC
26S proteasome non-ATPase regulatory subunit 14, sequence (O00487 whole entry): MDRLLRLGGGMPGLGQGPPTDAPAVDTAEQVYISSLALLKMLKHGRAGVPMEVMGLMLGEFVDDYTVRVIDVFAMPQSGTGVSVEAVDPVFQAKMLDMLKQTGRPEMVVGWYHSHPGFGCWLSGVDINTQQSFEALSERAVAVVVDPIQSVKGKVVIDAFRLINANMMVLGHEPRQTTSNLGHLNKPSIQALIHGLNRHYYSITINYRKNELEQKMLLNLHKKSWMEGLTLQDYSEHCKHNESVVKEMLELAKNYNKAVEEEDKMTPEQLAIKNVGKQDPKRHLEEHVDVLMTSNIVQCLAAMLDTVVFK
Melanocortin receptor 4, sequence (P32245 whole entry): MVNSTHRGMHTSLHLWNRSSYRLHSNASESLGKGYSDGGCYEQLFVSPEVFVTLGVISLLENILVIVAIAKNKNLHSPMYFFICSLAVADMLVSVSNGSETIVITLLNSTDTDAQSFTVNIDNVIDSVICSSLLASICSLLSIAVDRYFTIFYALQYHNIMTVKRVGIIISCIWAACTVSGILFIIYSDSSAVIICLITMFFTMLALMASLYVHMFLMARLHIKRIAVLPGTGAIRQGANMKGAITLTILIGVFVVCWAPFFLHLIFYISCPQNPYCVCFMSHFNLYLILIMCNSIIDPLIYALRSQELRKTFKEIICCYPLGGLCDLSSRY

For the compound `COc1cc(NS(=O)(=O)c2ccccc2)c2ncccc2c1`, the IC50 with HEK293 [1] was 59.5 µM (inactive); in the test on Jurkat it was 1.32 µM (active); in the test on HEK293 [2], 70.7 µM (inactive).

In the case of `O=C(c1ccc([N+](=O)[O-])o1)N1CCN(c2nc3c(F)cc(F)cc3s2)CC1`, the EC50 in test [3] was 0.466 µM (active); in test [4] it was 22.4 µM (active); in test [5], 8.9 µM (active); in [6], 0.39 µM (active); in [7], 1.93 µM (active).

As for `CN(C(=O)c1cccc(Br)c1)c1nc2ccccc2s1`, the IC50 (at Caspase-3; in [8]; in [9]; in test [10]) was > 99 µM (inactive) in each case.

For `CC(=O)Oc1ccc2nc(-c3ccc(Br)o3)oc(=O)c2c1`, the IC50 (on Melanocortin receptor 4; in test [11]) was > 64.6 µM (inactive) each time.

Take `Cc1ccc(N2CCN(C(=O)c3ccc(Cl)cc3)CC2)nc1`: the AC50 in the test on Candida albicans [12] is 25.4 µM (active); with Candida albicans [13], 0.413 µM (active).

As to `O=[N+]([O-])c1ccc(N/N=C/c2sc(N3CCOCC3)nc2-c2ccccc2)c(S(=O)(=O)Nc2ccccc2Cl)c1`, the IC50 in [14] was 0.658 µM (active); in test [15], > 100 µM (inactive); at Prothrombin, 0.564 µM (active).

As to `C[C@@H]1CN([C@@H](C)CO)C(=O)c2cccc(NC(=O)Nc3cccc4ccccc34)c2O[C@H]1CN(C)S(=O)(=O)c1ccc2ncsc2c1`, the concentration at half-maximal activity (AC50) in the test on INS1 [16] is 24.9 µM (active); in test [17] it was 34.6 µM (active); in the test with INS1 [18], 38.8 µM (active); in the test with INS1 [19], 176 µM (active).
